In publication PMC5516028, “Molecular tools for GABAA receptors: High affinity ligands for β1-containing subtypes” (Scientific Reports, 2017):
Where “and” joins values, the source holds several entries; their conditions need not be identical. Identical values can stand only once. Like-named read-outs stand apart in the source and are kept apart here.

Key:
Type in all cases: cell-based
α1β1 GABAA receptors = target: T1, α1β1 GABAA receptors (Rattus norvegicus, UniProt P15431+P62813); test: Two electrode voltage clamp in Xenopus laevis oocytes, α1β1; settings: α1β1
T1 construct: expressed in transfected cells; host or cells: Xenopus laevis oocytes, mRNA injected
T1 sequence (P62813 28-455): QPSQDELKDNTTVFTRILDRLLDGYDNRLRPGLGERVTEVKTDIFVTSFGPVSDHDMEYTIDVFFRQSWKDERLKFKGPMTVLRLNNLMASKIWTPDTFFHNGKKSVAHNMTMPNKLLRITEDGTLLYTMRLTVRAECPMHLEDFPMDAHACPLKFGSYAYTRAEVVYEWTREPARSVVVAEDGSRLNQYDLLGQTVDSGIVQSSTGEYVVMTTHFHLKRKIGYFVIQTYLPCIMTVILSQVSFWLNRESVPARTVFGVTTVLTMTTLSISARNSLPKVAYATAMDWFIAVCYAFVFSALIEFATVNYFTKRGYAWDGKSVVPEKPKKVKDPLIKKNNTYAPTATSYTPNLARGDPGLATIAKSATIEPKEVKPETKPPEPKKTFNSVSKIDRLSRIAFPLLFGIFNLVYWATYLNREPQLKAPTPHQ
T1 sequence (P15431 26-474): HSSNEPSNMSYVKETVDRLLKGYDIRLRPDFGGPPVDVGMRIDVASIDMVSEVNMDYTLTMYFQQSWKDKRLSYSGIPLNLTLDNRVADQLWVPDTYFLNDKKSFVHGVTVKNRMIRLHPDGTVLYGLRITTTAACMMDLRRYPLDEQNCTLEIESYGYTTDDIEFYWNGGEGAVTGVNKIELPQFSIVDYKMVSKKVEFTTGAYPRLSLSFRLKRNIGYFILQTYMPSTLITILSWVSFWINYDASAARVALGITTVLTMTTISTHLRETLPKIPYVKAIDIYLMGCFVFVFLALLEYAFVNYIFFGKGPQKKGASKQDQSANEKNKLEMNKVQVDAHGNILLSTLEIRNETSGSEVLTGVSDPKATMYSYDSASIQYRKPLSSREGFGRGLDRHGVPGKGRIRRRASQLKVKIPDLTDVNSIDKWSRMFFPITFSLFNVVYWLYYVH
Method in brief: (§1)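 Expression used a 1:1 cRNA mix for αβ, which gives predominantly 3β:2α receptors, and a 1:1:5 mix where γ2 was included. Recordings took place in Ca²⁺-containing NDE at pH 7.5 after 2–3 days (αβ) or 3–4 days (αβγ).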

α1β2 GABAA receptors = target: T2, α1β2 GABAA receptors (Rattus norvegicus, UniProt P62813+P63138); test: Two electrode voltage clamp in Xenopus laevis oocytes, α1β2
T2 construct: expressed in transfected cells; host or cells: Xenopus laevis oocytes, mRNA injected
T2 sequence (P62813 28-455): as the sequence (P62813 28-455) above
T2 sequence (P63138 25-474 limits assumed): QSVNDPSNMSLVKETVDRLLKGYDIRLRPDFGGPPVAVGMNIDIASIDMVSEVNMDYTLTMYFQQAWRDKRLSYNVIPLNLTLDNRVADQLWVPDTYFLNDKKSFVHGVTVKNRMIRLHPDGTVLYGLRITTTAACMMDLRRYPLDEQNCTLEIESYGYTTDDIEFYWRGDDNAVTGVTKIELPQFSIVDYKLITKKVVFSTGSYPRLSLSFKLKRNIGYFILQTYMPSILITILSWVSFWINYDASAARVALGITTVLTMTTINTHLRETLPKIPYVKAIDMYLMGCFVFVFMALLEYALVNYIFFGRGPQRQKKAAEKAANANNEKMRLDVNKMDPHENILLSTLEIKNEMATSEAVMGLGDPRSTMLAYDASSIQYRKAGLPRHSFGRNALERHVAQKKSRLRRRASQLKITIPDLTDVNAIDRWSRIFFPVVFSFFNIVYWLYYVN
Method in brief: as §1

α1β3 GABAA receptors = target: T3, α1β3 GABAA receptors (Rattus norvegicus, UniProt P62813+P63079); test: Two electrode voltage clamp in Xenopus laevis oocytes, α1β3
T3 construct: expressed in transfected cells; host or cells: Xenopus laevis oocytes, mRNA injected
T3 sequence (P62813 28-455): as the sequence (P62813 28-455) above
T3 sequence (P63079 26-473): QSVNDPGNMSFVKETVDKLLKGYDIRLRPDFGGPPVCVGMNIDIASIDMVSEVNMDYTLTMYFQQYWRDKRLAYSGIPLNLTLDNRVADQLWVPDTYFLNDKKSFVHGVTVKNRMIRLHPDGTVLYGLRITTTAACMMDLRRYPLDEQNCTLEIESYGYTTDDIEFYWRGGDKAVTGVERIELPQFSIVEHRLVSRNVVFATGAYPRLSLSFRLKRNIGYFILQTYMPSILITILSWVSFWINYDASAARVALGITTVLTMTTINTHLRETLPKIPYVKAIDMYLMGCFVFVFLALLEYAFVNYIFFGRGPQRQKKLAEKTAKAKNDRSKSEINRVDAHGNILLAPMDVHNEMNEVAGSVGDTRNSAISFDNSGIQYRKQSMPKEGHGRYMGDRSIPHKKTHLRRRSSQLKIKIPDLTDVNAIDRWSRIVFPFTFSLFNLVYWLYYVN
Method in brief: as §1

α1β1R41N GABAA receptors = target: T4, α1β1R41N GABAA receptors (Rattus norvegicus, UniProt P15431+P62813, R66N); test: Two electrode voltage clamp in Xenopus laevis oocytes, mutant α1β1R41N; settings: read-out: % of control current at EC3-5
T4 construct: expressed in transfected cells; host or cells: Xenopus laevis oocytes, mRNA injected
T4 sequence (P62813 28-455): as the sequence (P62813 28-455) above
T4 sequence (P15431 26-474 R66N): as the sequence (P15431 26-474) above, with R41N counted along it
Method in brief: as §1

α1β3N41R GABAA receptors = target: T5, α1β3N41R GABAA receptors (Rattus norvegicus, UniProt P62813+P63079, N66R); test: Two electrode voltage clamp in Xenopus laevis oocytes, mutant α1β3N41R; settings: co-applied with GABA EC3-5, read-out: EC50 values for the mutated receptors
T5 construct: expressed in transfected cells; host or cells: Xenopus laevis oocytes, mRNA injected
T5 sequence (P62813 28-455): as the sequence (P62813 28-455) above
T5 sequence (P63079 26-473 N66R): as the sequence (P63079 26-473) above, with N41R counted along it
Method in brief: as §1

α4β3γ2 GABAA receptors = target: T6, α4β3γ2 GABAA receptors (Rattus norvegicus, UniProt P28471+P63079); test: Two electrode voltage clamp in Xenopus laevis oocytes, α4β3γ2
T6 construct: expressed in transfected cells; host or cells: Xenopus laevis oocytes, mRNA injected
T6 sequence (P28471 36-552): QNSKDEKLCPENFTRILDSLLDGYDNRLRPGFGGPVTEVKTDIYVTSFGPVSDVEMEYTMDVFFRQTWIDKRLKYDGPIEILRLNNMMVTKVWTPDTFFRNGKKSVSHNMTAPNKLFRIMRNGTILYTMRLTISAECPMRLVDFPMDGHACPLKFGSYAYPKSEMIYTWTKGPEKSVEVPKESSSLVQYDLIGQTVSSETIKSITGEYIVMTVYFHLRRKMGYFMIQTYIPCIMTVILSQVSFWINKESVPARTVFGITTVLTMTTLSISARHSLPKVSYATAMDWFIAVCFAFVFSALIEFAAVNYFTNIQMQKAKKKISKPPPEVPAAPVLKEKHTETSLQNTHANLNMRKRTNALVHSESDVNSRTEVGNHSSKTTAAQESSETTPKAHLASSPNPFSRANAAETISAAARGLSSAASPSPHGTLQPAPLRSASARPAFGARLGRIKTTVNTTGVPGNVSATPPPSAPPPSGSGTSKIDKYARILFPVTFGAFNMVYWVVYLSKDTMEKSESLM
T6 sequence (P63079 26-473): as the sequence (P63079 26-473) above
T6 sequence (P18508 39-466 partner): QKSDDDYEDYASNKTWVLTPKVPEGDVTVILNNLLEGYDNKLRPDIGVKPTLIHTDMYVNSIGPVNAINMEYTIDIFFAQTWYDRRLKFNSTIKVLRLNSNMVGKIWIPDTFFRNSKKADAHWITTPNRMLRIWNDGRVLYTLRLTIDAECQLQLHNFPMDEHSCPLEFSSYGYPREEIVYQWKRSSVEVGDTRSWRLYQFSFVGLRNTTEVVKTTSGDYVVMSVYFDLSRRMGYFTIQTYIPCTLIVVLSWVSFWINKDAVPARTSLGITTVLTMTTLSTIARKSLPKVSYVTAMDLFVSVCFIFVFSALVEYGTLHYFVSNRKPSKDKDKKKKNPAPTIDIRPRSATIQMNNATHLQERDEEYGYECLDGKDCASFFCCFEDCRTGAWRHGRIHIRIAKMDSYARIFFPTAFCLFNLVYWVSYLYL
Description: (§2) cDNA’s of rat GABAA receptor subunits α1, α4, β1, β2, β3 and γ2S were cloned as described. cDNAs of the rat subunits α2, α3 and α5 were gifts from P. Malherbe, that of α6 and γ1 were gifts of P. Seeburg and that of δ was a gift of C. Czajkowski. The mutants were constructed using the Q5 Site-Directed Mutagenesis Kit (New England Biolabs) following manufacturer’s instruction. We used the wild-type rat β3-pCI vector as template and the primers […] and […] resulting in a substitution of amino acid N41 (AAC) to R (AGG). We used the wild-type rat β1-pCI vector as template and the primers […] and […] resulting in a substitution of amino acid R41 (CGG) to N (AAC). The mutated subunits were confirmed by sequencing.
(§3) In vitro transcription of mRNA was based on the cDNA expression vectors encoding for rat GABAA receptor subunits α1–6, β1-3, γ1,2, δ and the two β mutants (β1R41N and β3N41R)[40]. After linearizing the cDNA vectors with appropriate restriction endonucleases, the cDNA was purified and concentrated with the DNA Clean and Contentrator ^TM Kit (Zymoresearch, Catalog No. D4005). Capped transcripts of the purified cDNA were produced using the mMESSAGE mMACHINE® T7 transcription kit (Ambion, TX, USA) and polyadenylated using the Ambion PolyA tailing kit (Ambion). After transcription and polyadenylation the RNA was purified with the MEGAclear ^TM Kit (Ambion, Catalog No. AM1908). The final RNA concentration was measured on NanoDrop® ND-1000 and finally diluted and stored in diethylpyrocarbonate-treated water at −80 °C. For the microinjection, the RNA of αβ receptor combinations was mixed at 1:1 ratio (which leads to αβ receptors that consist of predominantly 3 beta and 2 alpha subunits[27]), for αkβlγm (k = 1–3, l = 1, 3, m = 1, 2) receptors at 1:1:5 ratio, for αkβ3γ2 (k = 4–6) and αkβlδ (k = 1, 4 and 6, l = 1, 3) receptor combinations at 3:1:5 ratio.
(§4) Mature female Xenopus laevis (Nasco, WI) were anesthetized in a bath of ice-cold 0.17% Tricain (Ethyl-m-aminobenzoate, Sigma, MO) before decapitation in full accordance with all rules of the Austrian animal protection law (see http://www.ris.bka.gv.at/Dokumente/BgblAuth/BGBLA_2012_I_114/BGBLA_2012_I_114.pdf) and the Austrian animal experiment by-laws (see https://www.ris.bka.gv.at/Dokumente/BgblAuth/BGBLA_2012_II_522/BGBLA_2012_II_522.pdf) which implement the European Directive 2010/63/EU (see http://eur-lex.europa.eu/LexUriServ/LexUriServ.do?uri=OJ:L:2010:276:0033:0079:en:PDF) into the Austrian law (all information accessed on July 27, 2016). The frog’s ovaries were transferred to ND96 medium (96 mM NaCl, 2 mM KCl, 1 mM MgCl2, 5 mM HEPES; pH 7.5). Stage 5–6 oocytes with the follicle cell layer around them were roughly dissected with forceps into packages of 10–15 cells and washed in Ca^2+-free ND96 medium. Cells were then digested with collagenase (type IA, Sigma, NO, 1 mg/mL ND96) at 18 °C shaking at 30 rpm for 30–60 minutes and gently defolliculated with the aid of a glass pipette with appropriate tip diameter and a platinum loop. Defolliculated cells were stored at 18 °C for at least 6 hours in ND96 solution containing penicillin G (10000 IU/100 mL) and streptomycin (10 mg/100 mL) in order to preselect and exclude damaged cells from further treatment. Healthy defolliculated oocytes were injected with an aqueous solution of mRNA. A total of 4.5 ng of mRNA per oocyte was injected with a Nanoject II (Drummond). After injection of mRNA, oocytes were incubated at 18 °C (ND96 + antibiotic) for 2–3 days for αβ receptors and for 3–4 days for αβγ or αβδ receptors before recording. When cells were measured at later time points, oocytes were stored at +4 °C instead of 18 °C.
(§5) For electrophysiological recordings, oocytes were placed on a nylon-grid in a bath of Ca^2+-containing NDE solution medium [96 mM NaCl, 5 mM HEPES-NaOH (pH 7.5), 2 mM KCl, 1 mM MgCl2, 1.8 mM CaCl2].

α5β3 GABAA receptors = target: T7, α5β3 GABAA receptors (Rattus norvegicus, UniProt P19969+P63079); test: Two electrode voltage clamp in Xenopus laevis oocytes, α5β3
T7 construct: expressed in transfected cells; host or cells: Xenopus laevis oocytes, mRNA injected
T7 sequence (P19969 32-464 limits assumed): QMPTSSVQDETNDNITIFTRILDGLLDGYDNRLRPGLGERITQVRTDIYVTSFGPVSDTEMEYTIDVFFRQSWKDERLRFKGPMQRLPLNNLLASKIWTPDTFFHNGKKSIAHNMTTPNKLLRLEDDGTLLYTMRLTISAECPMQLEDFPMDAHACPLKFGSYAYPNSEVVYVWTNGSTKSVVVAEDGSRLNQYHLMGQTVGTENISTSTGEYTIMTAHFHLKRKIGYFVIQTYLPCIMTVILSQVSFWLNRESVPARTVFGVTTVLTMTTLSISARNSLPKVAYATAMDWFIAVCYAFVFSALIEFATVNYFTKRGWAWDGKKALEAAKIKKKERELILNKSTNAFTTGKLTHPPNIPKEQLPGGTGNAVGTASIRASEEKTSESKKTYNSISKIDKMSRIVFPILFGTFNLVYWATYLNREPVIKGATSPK
T7 sequence (P63079 26-473): as the sequence (P63079 26-473) above
Description: as §2, §3, §4, §5

**Q.** Which results are given for `Cc1ccc(-n2nc3c4cc(Cl)ccc4[nH]cc-3c2=O)cc1` [Compound 2, 8-Chloro-2-(4-methylphenyl)-2H-pyrazolo[4,3-c]quinolin-3(5H)-one]?
**A.** activity at 0.3 µM (α1β1 GABAA receptors; read-out: efficacy, % of control current (GABA EC3-5 = 100%), 300 nM): 194 ± 23.3%; Hill slope (nH) (α1β1 GABAA receptors): 1.0±0.4; EC50 (α1β1 GABAA receptors; co-applied with GABA EC3-5, read-out: EC50): 0.77 µM; EC50 (α1β1 GABAA receptors; log of EC50, sign as printed, read-out: LogEC50 (converted)): 0.759 µM; EC50 (α1β2 GABAA receptors): 4.31 µM; activity at 0.1 µM (α1β2 GABAA receptors; read-out: efficacy, % of control current (GABA EC3-5 = 100%), α1β2, 100 nM): 105 ± 1.4%; activity at 1 µM (α1β2 GABAA receptors; read-out: efficacy, % of control current (GABA EC3-5 = 100%), α1β2, 1 µM): 134 ± 8.2%; Hill slope (nH) (α1β2 GABAA receptors; α1β2): 2.0±0.9; activity at 0.001 µM (α1β3 GABAA receptors; read-out: efficacy, % of control current (GABA EC3-5 = 100%), α1β3, 1 nM): 100.1 ± 0.1%; activity at 0.003 µM (α1β3 GABAA receptors; read-out: efficacy, % of control current (GABA EC3-5 = 100%), α1β3, 3 nM): 100.1 ± 0.1%; activity at 0.01 µM (α1β3 GABAA receptors; read-out: efficacy, % of control current (GABA EC3-5 = 100%), α1β3, 10 nM): 100.7 ± 0.5%; activity at 0.1 µM (α1β3 GABAA receptors; read-out: efficacy, % of control current (GABA EC3-5 = 100%), α1β3, 100 nM): 109 ± 2.2%; activity at 0.3 µM (α1β3 GABAA receptors; read-out: efficacy, % of control current (GABA EC3-5 = 100%), α1β3, 300 nM): 122 ± 5.4%; activity at 1 µM (α1β3 GABAA receptors; read-out: efficacy, % of control current (GABA EC3-5 = 100%), α1β3, 1 µM): 151 ± 11.5%; activity at 3 µM (α1β3 GABAA receptors; read-out: efficacy, % of control current (GABA EC3-5 = 100%), α1β3, 3 µM): 276 ± 41.7%; activity at 10 µM (α1β3 GABAA receptors; read-out: efficacy, % of control current (GABA EC3-5 = 100%), α1β3, 10 µM): 372 ± 40.1%; Hill slope (nH) (α1β3 GABAA receptors; α1β3): 1.9±0.6; EC50 (α1β3 GABAA receptors; α1β3, co-applied with GABA EC3-5, read-out: EC50): 2.39 µM; EC50 (α1β3 GABAA receptors; α1β3, log of EC50, sign as printed, read-out: LogEC50 (converted)): 2.4 µM and 2.51 µM; current as % of control at 0.1 µM (α1β1R41N GABAA receptors; 100nM): 70 ± 5%; current as % of control at 0.3 µM (α1β1R41N GABAA receptors; 300nM): 62 ± 8%; current as % of control at 1 µM (α1β1R41N GABAA receptors; 1μM): 62 ± 8%; current as % of control at 3 µM (α1β1R41N GABAA receptors; 3µM): 60 ± 9%; current as % of control at 10 µM (α1β1R41N GABAA receptors; 10μM): 60 ± 10%; current as % of control at 30 µM (α1β1R41N GABAA receptors; 30μM): 60 ± 8%; EC50 (α1β3N41R GABAA receptors): 3.44 µM; EC50 (α4β3γ2 GABAA receptors): 13.4 µM; activity at 0.001 µM (α4β3γ2 GABAA receptors; read-out: efficacy, % of control current (GABA EC3-5 = 100%), α4β3γ2, 1 nM): 101 ± 1.8%; activity at 0.003 µM (α4β3γ2 GABAA receptors; read-out: efficacy, % of control current (GABA EC3-5 = 100%), α4β3γ2, 3 nM): 96.3 ± 8%; activity at 0.01 µM (α4β3γ2 GABAA receptors; read-out: efficacy, % of control current (GABA EC3-5 = 100%), α4β3γ2, 10 nM): 100 ± 2.2%; activity at 0.03 µM (α4β3γ2 GABAA receptors; read-out: efficacy, % of control current (GABA EC3-5 = 100%), α4β3γ2, 30 nM): 104 ± 4.4%; activity at 0.1 µM (α4β3γ2 GABAA receptors; read-out: efficacy, % of control current (GABA EC3-5 = 100%), α4β3γ2, 100 nM): 120 ± 10.1%; activity at 1 µM (α4β3γ2 GABAA receptors; read-out: efficacy, % of control current (GABA EC3-5 = 100%), α4β3γ2, 1 µM): 162 ± 16.3%; activity at 10 µM (α4β3γ2 GABAA receptors; read-out: efficacy, % of control current (GABA EC3-5 = 100%), α4β3γ2, 10 µM): 267 ± 16.8%; activity at 30 µM (α4β3γ2 GABAA receptors; read-out: efficacy, % of control current (GABA EC3-5 = 100%), α4β3γ2, 30 µM): 315 ± 30.1%; EC50 (α5β3 GABAA receptors): 6.1 µM; activity at 0.001 µM (α5β3 GABAA receptors; read-out: efficacy, % of control current (GABA EC3-5 = 100%), α5β3, 1 nM): 97.3 ± 1.2%; activity at 0.1 µM (α5β3 GABAA receptors; read-out: efficacy, % of control current (GABA EC3-5 = 100%), α5β3, 100 nM): 110 ± 3.6%; activity at 0.3 µM (α5β3 GABAA receptors; read-out: efficacy, % of control current (GABA EC3-5 = 100%), α5β3, 300 nM): 108 ± 6.3%; activity at 1 µM (α5β3 GABAA receptors; read-out: efficacy, % of control current (GABA EC3-5 = 100%), α5β3, 1 µM): 132 ± 3.8%; activity at 3 µM (α5β3 GABAA receptors; read-out: efficacy, % of control current (GABA EC3-5 = 100%), α5β3, 3 µM): 190 ± 22.9%; activity at 30 µM (α5β3 GABAA receptors; read-out: efficacy, % of control current (GABA EC3-5 = 100%), α5β3, 30 µM): 232 ± 21.5%
